{"source": "paper PMC4467147", "about": "“Identification of epipolythiodioxopiperazines HDN-1 and chaetocin as novel inhibitor of heat shock protein 90” (Oncotarget, 2015)", "key": {"H1975 cells [1]": {"test_system": "H1975 cells", "assay": "Drug combination study HDN-1 and 17-AAG, MTT assay, H1975", "assay_type": "cell-based, human", "conditions": "H1975, 72 h", "protocol": "(§1) A modified tetrazolium salt assay was used to measure the inhibition of cancer cell growth. Cancer cells were plated into a 96-well microtiter plate containing 0.1 ml of growth media/well for 24 h, then were incubated with HDN-1 at indicated concentrations dissolved in DMSO for 72 h. 3-(4,5-Dimethylthiazol-2-yl)-2,5- diphenyltetrazoliumbromide (MTT) was added to each well of a 96-well plate. After 4 h incubation, the formazan product was dissolved and quantitated spectrophotometrically at a wavelength of 560 nm. Percent viability of each sample was calculated from the A560 values as follows: % viability = (A560 nm sample / A560 nm DMSO-treated cells × 100). The IC50 was defined as the concentration that gave rise to 50% inhibition of cell viability.\nH1975 cell were seeded in triplicate in 96-well plates and treated with HDN-1 or 17-AAG alone or with the combination of HDN-1 and 17-AAG at the indicated doses. MTT assays were performed after 72 h of treatment. The Q (value) was calculated according to Jin's formula: Q = Ea+b/(Ea+Eb−Ea × Eb). Ea+b represented the inhibition rate of drug combination, Ea and Eb represented the inhibition rate of drug A and B alone, respectively. Q (value) = 0.85–1.15 stands for additivity, Q (value) > 1.15–2.0 stands for synergism, and Q (value) < 0.85–0.55 stands for antagonism."}, "Hsp90α ATPase": {"target": "Hsp90α ATPase (Homo sapiens, UniProt P07900)", "assay": "Hsp90α ATPase activity", "assay_type": "biochemical", "conditions": "data not shown"}, "full length Hsp90α": {"target": "T1, full length Hsp90α (Homo sapiens, UniProt P07900)", "T1 construct": "For full length Hsp90α, Hsp90α was coupled to the surface of a GLH sensor chip using amine coupling", "assay": "SPR binding to full-length Hsp90α immobilized on sensor chip", "conditions": "25°C, 1:1 Langmuir model, read-out: dissociation constant (Kd) for full-length Hsp90α", "protocol": "(§2) SPR analysis was carried out with a ProteOn XPR36 instrument (Bio-Rad) or ForteBio's Octet RED96 to determine binding of various molecules to full length Hsp90α or C-terminal Hsp90α. For full length Hsp90α, Hsp90α was coupled to the surface of a GLH sensor chip using amine coupling. The coupling has been performed according to the manufacturer's instructions. Binding experiments were performed with multiple concentrations of HDN-1 and chaetocin running over the surface of the chip at 25°C, at a constant flow rate of 30 μl/min in PBS-T (10 mM Phosphate, 150 mM NaCl, pH 7.4 and 0.005% Tween20 [v/v]). The sensor chip surface was regenerated using 0.85% H3PO4. Changes in mass due to the binding response were recorded as resonance units (RU). To obtain the dissociation constant (Kd), these responses were fit to a 1:1 Langmuir binding model by nonlinear regression using the BiaEvaluation 4.1 software program. For interplay of HDN-1 with other molecules, 50 μM 17-AAG, 50 μM novobiocin, or 100 μM ATP was injected into Hsp90α-immobilized chip and the RU values were recorded in succession for indicated time, then these compounds were replaced by 50 μM HDN-1, and RU values were recorded unceasingly. Similar experiments were conversely performed and RU values were recorded. […] Binding of samples (31.25–500 μM) to coated and uncoated reference sensors was measured over 60 s. […]"}, "H1975 cells [2]": {"test_system": "H1975 cells", "assay": "MTT cell viability assay, H1975", "assay_type": "cell-based", "conditions": "Homo sapiens, NCI-H1975, H1975, 72 h, read-out: IC50 cell proliferation", "protocol": "as §1"}, "Hsp90α": {"target": "T2, Hsp90α (Homo sapiens, UniProt P07900)", "T2 construct": "For full length Hsp90α, Hsp90α was coupled to the surface of a GLH sensor chip using amine coupling", "assay": "Fluorescence polarization competitive assay, displacement of FITC-GA from Hsp90α", "conditions": "200 nM FITC-GA, 30 nM Hsp90α; read-out: IC50, effect on the binding of GA to Hsp90", "protocol": "Fluorescence polarization assays were performed under the following conditions: each 96-well plate contained 200 nM FITC-GA, Hsp90α (30 nM), and tested inhibitor (initial stock in DMSO) in a final volume of 100 μl. For each assay, background wells (buffer only), tracer controls (free, FITC-GA only), and bound GA controls (fluorescent GA in the presence of Hsp90) were included on each assay plate. The fraction of tracer bound to Hsp90 was correlated to the mP value and plotted against log10 values of competitor concentrations. The HDN-1 and 17-AAG concentrations at which 50% of bound GA was displaced was obtained by fitting the data. Fluorescence intensity measurements were obtained using a SpectraMax M5 (Molecular Devices, Sunnyvale, CA). The excitation and emission wavelengths were 485 nm and 530 nm, respectively."}, "A549 cells": {"test_system": "A549 cells", "assay": "MTT cell viability assay, A549", "assay_type": "cell-based, human", "conditions": "A549, 72 h, read-out: IC50 cell proliferation", "protocol": "as §1"}, "[3]": {"target": "T3, C-terminal Hsp90 fragment (535–732aa) of human Hsp90α (Homo sapiens, UniProt P07900)", "T3 construct": "recombinant C-terminal Hsp90 fragment (535–732aa) of human Hsp90α", "assay": "ForteBio Octet binding to biotinylated C-terminal Hsp90α", "conditions": "Octet RED96, read-out: Kd for C-terminus of Hsp90α", "protocol": "as §2"}, "Hsp90 client proteins": {"test_system": "Hsp90 client proteins", "assay": "Western blotting of Hsp90 client proteins and Hsp70 in NSCLC cells", "assay_type": "cell-based, human", "conditions": "for effect on level of SUV39H1: 24 h; for effect on Hsp90 client protein levels (EGFR, Akt, Cyclin D1 etc.): NSCLC cells", "protocol": "Cells were incubated with HDN-1 at indicated concentrations and time, then washed with PBS twice, disrupted on ice for 30 min in loading buffer, and boiled for 10 min. Protein concentration was determined with BCA reagent. Equal amounts of protein in cell lysates were separated by SDS-PAGE, transferred to membranes, immunoblotted with indicated primary and secondary antibodies, and detected by chemiluminescence with the enhanced chemiluminescence detection reagents (PIERCE). The antibodies of following proteins were used: EGFR, phosphorylated EGFR (Tyr1068), Akt, phosphorylated Akt (Ser473), MAPK, phosphorylated MAPK (Thr202/Tyr204), ubiquitin, Hsp70, β-Actin; Abl, Stat3, phosphorylated Stat3 (Ser727), Raf-1, cyclin D1. For immunoprecipitation assay, cell lysate protein was incubated overnight at 4°C with the designated antibody and protein G-Sepharose (Amersham Biosciences) was added overnight while rocking. Precipitates were washed three times with lysis buffer and once with PBS, resuspended in 2 × loading buffer, and resolved by SDS-PAGE followed by immunoblot analysis."}, "HCC827 cells": {"test_system": "HCC827 cells", "assay": "MTT cell viability assay, HCC827", "assay_type": "cell-based, human", "conditions": "HCC827, 72 h, read-out: IC50 cell proliferation", "protocol": "as §1"}, "[4]": {"target": "C-terminus of ATP binding site (660–680 aa) of Hsp90α", "parameters": "method as in PMID 11751878", "conditions": "read-out: binding affinity to C-terminus of ATP binding site of Hsp90α; cited from earlier work"}}, "note": "Where two headings read alike, the source gives them in different places.", "data": [{"compound": "C=CCNC1=C2C[C@@H](C)C[C@H](OC)[C@H](O)[C@@H](C)/C=C(\\C)[C@H](OC(N)=O)[C@@H](OC)/C=C\\C=C(/C)C(=O)NC(=CC1=O)C2=O", "note": "[17-AAG]", "values": [{"measurement": "Inhibition Rate Mean", "setting": "H1975 cells [1]; single agent 100 nM", "result": 0.070}, {"measurement": "Inhibition Rate Mean", "setting": "H1975 cells [1]; single agent 200 nM", "result": 0.267}, {"measurement": "Inhibition Rate Mean", "setting": "H1975 cells [1]; single agent 300 nM", "result": 0.393}]}, {"compound": "CN1C(=O)[C@]23SSS[C@@]1(CO)C(=O)N2[C@H]1Nc2ccccc2C1(C12c4ccccc4N[C@@H]1N1C(=O)[C@]4(CO)SS[C@]1(C(=O)N4C)[C@H]2O)[C@@H]3O", "note": "(stereo partly shown) [HDN-1]", "values": [{"measurement": "effect on Hsp90α ATPase activity", "setting": "Hsp90α ATPase", "result": "no effect"}, {"measurement": "Kd", "setting": "full length Hsp90α", "result": 14.6, "unit": "µM"}, {"measurement": "IC50", "setting": "H1975 cells [2]", "result": 0.22, "unit": "µM"}, {"measurement": "IC50", "setting": "Hsp90α", "result": "> 10", "unit": "µM"}, {"measurement": "IC50", "setting": "A549 cells", "result": 0.54, "unit": "µM"}, {"measurement": "IC50", "setting": "A549 cells; Homo sapiens", "result": 1.06, "unit": "µM"}, {"measurement": "Kd", "setting": "[3]", "result": 201, "unit": "µM"}, {"measurement": "inhibition at 0.1 µM", "setting": "H1975 cells [1]; Homo sapiens, NCI-H1975, single agent 100 nM, read-out: Inhibition Rate Mean", "result": 5.1, "unit": "%"}, {"measurement": "inhibition at 0.2 µM", "setting": "H1975 cells [1]; Homo sapiens, NCI-H1975, single agent 200 nM, read-out: Inhibition Rate Mean", "result": 37.1, "unit": "%"}, {"measurement": "effect on level of SUV39H1", "setting": "Hsp90 client proteins; Western blotting", "result": "decline"}, {"measurement": "effect on Hsp70 expression", "setting": "Hsp90 client proteins; H1975, HCC827, A549 cells, Western blotting", "result": "did not obviously affect"}, {"measurement": "effect on HIF-1α", "setting": "Hsp90 client proteins; H1975 and A549 cells, CoCl2-induced hypoxia or 5% CO2 and 2% O2", "result": "degraded"}, {"measurement": "effect on Hsp90 client protein levels (EGFR, Akt, Cyclin D1 etc.)", "setting": "Hsp90 client proteins; Western blotting", "result": "reduced the expression levels"}, {"measurement": "IC50", "setting": "HCC827 cells", "result": 1.06, "unit": "µM"}, {"measurement": "IC50", "setting": "HCC827 cells; Homo sapiens", "result": 0.54, "unit": "µM"}]}, {"compound": "CO[C@@H]1[C@@H](OC(N)=O)[C@@H](O)[C@H](Oc2ccc3c(O)c(NC(=O)c4ccc(O)c(CC=C(C)C)c4)c(=O)oc3c2C)OC1(C)C", "note": "[Novobiocin]", "values": [{"measurement": "Kd", "setting": "[4]", "result": "~3300", "unit": "µM"}]}, {"compound": "CN1C(=O)[C@@]23C[C@]4([C@]56C[C@@]78SS[C@@](CO)(C(=O)N7[C@H]5Nc5ccccc56)N(C)C8=O)c5ccccc5N[C@@H]4N2C(=O)[C@]1(CO)SS3", "note": "[chaetocin]", "values": [{"measurement": "Kd", "setting": "full length Hsp90α", "result": 16.8, "unit": "µM"}, {"measurement": "effect on level of SUV39H1", "setting": "Hsp90 client proteins; Western blotting", "result": "decline"}, {"measurement": "effect on Hsp90 client protein levels (EGFR, Akt, Cyclin D1 etc.)", "setting": "Hsp90 client proteins; Western blotting", "result": "degraded client proteins"}]}]}
